Assay results reported in PubChem BioAssay (NCI).
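1) Cells in 96-well plates. 2) Compound, 48 h, 5 concentrations. 3) Linear interpolation between surrounding doses. 4) Unreached endpoint = highest concentration. GI50: concentration for 50% inhibition of growth. TGI: concentration producing complete growth inhibition.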

Assays:
Test in all cases: NCI tumour cell line growth inhibition, 48 h
SNB-75 CNS = system: SNB-75 CNS
SNB-19 CNS = system: SNB-19 CNS
NCI-H226 lung = system: NCI-H226 lung
MALME-3M melanoma = system: MALME-3M melanoma
SK-MEL-2 melanoma = system: SK-MEL-2 melanoma
DU-145 prostate = system: DU-145 prostate
OVCAR-8 ovarian = system: OVCAR-8 ovarian
CCRF-CEM leukemia = system: CCRF-CEM leukemia
HL-60(TB) leukemia = system: HL-60(TB) leukemia
UACC-62 melanoma = system: UACC-62 melanoma
KM12 colon = system: KM12 colon
SF-539 CNS = system: SF-539 CNS
HS 578T breast = system: HS 578T breast
ACHN renal = system: ACHN renal
HCT-116 colon = system: HCT-116 colon
A498 renal = system: A498 renal
LOX IMVI melanoma = system: LOX IMVI melanoma
NCI/ADR-RES ovarian = system: NCI/ADR-RES ovarian
HOP-62 NSCLC = system: HOP-62 NSCLC
SK-MEL-5 melanoma = system: SK-MEL-5 melanoma
OVCAR-4 ovarian = system: OVCAR-4 ovarian
RPMI-8226 leukemia = system: RPMI-8226 leukemia
MOLT-4 leukemia = system: MOLT-4 leukemia
EKVX NSCLC = system: EKVX NSCLC
786-0 renal = system: 786-0 renal
OVCAR-5 ovarian = system: OVCAR-5 ovarian
OVCAR-3 ovarian = system: OVCAR-3 ovarian
UO-31 renal = system: UO-31 renal
SK-MEL-28 melanoma = system: SK-MEL-28 melanoma
SW-620 colon = system: SW-620 colon
T-47D breast = system: T-47D breast
HOP-92 NSCLC = system: HOP-92 NSCLC
TK-10 renal = system: TK-10 renal
HCT-15 colon = system: HCT-15 colon
SF-295 CNS = system: SF-295 CNS
HT29 colon = system: HT29 colon
M14 melanoma = system: M14 melanoma
NCI-H522 lung = system: NCI-H522 lung
NCI-H23 lung = system: NCI-H23 lung
NCI-H460 lung = system: NCI-H460 lung
HCC-2998 colon = system: HCC-2998 colon
SK-OV-3 ovarian = system: SK-OV-3 ovarian
MDA-MB-468 breast = system: MDA-MB-468 breast
CAKI-1 renal = system: CAKI-1 renal
BT-549 breast = system: BT-549 breast
COLO 205 colon = system: COLO 205 colon
UACC-257 melanoma = system: UACC-257 melanoma
IGROV1 ovarian = system: IGROV1 ovarian
PC-3 prostate = system: PC-3 prostate
SF-268 CNS = system: SF-268 CNS
SN12C renal = system: SN12C renal
MDA-MB-435 = system: MDA-MB-435
K-562 leukemia = system: K-562 leukemia
MCF7 breast = system: MCF7 breast
MDA-MB-231 breast = system: MDA-MB-231 breast
A549 NSCLC = system: A549 NSCLC
U251 CNS = system: U251 CNS
RXF 393 renal = system: RXF 393 renal

For COC(=O)C[C@](O)(CCCC(C)(C)O)C(=O)O[C@H]1C(OC)=C[C@@]23CCCN2CCc2cc4c(cc2[C@@H]13)OCO4, the GI50 (SNB-75 CNS) was 982 nM, the TGI (SNB-75 CNS) was 8370 nM and the GI50 (SNB-19 CNS) was 757 nM. For the same molecule, the TGI (SNB-19 CNS) was 3060 nM, the GI50 (NCI-H226 lung) was 781 nM and the TGI (NCI-H226 lung) was 3560 nM. It also gave a GI50 (MALME-3M melanoma) of 691 nM, a TGI (MALME-3M melanoma) of 2110 nM and a GI50 (SK-MEL-2 melanoma) of 3230 nM. The TGI (SK-MEL-2 melanoma) was 12800 nM, the GI50 (DU-145 prostate) was 1120 nM and the TGI (DU-145 prostate) was 13400 nM. The GI50 (OVCAR-8 ovarian) was 1420 nM, the TGI (OVCAR-8 ovarian) was 11900 nM and the GI50 (CCRF-CEM leukemia) was 856 nM. The TGI (CCRF-CEM leukemia) was 3020 nM, the GI50 (HL-60(TB) leukemia) was 456 nM and the TGI (HL-60(TB) leukemia) was 1740 nM. It also gave a GI50 (UACC-62 melanoma) of 1410 nM, a TGI (UACC-62 melanoma) of 10600 nM and a GI50 (KM12 colon) of 1280 nM. For the same molecule, the TGI (KM12 colon) was 17500 nM, the GI50 (SF-539 CNS) was 673 nM and the TGI (SF-539 CNS) was 1780 nM. The TGI (HS 578T breast) was 9750 nM, the GI50 (ACHN renal) was 1770 nM and the TGI (ACHN renal) was 16200 nM. It also gave a GI50 (HCT-116 colon) of 717 nM, a TGI (HCT-116 colon) of 3010 nM and a GI50 (A498 renal) of 665 nM. For the same molecule, the TGI (A498 renal) was 3660 nM, the GI50 (LOX IMVI melanoma) was 481 nM and the TGI (LOX IMVI melanoma) was 1560 nM. It also gave a GI50 (NCI/ADR-RES ovarian) greater than 38300 nM, a TGI (NCI/ADR-RES ovarian) greater than 38300 nM and a GI50 (HOP-62 NSCLC) of 1500 nM. It also gave a TGI (HOP-62 NSCLC) of 16200 nM, a GI50 (SK-MEL-5 melanoma) of 614 nM and a TGI (SK-MEL-5 melanoma) of 1470 nM. The GI50 (OVCAR-4 ovarian) was 1220 nM, the TGI (OVCAR-4 ovarian) was 10300 nM and the GI50 (RPMI-8226 leukemia) was 930 nM. For the same molecule, the TGI (RPMI-8226 leukemia) was 2360 nM, the GI50 (MOLT-4 leukemia) was 255 nM and the TGI (MOLT-4 leukemia) was 2290 nM. The GI50 (EKVX NSCLC) was 1670 nM, the TGI (EKVX NSCLC) was 16800 nM and the GI50 (786-0 renal) was 1450 nM. The TGI (786-0 renal) was 9560 nM, the GI50 (OVCAR-5 ovarian) was 1550 nM and the TGI (OVCAR-5 ovarian) was 11100 nM. For the same molecule, the GI50 (OVCAR-3 ovarian) was 1010 nM, the TGI (OVCAR-3 ovarian) was 4140 nM and the GI50 (UO-31 renal) was 4550 nM. For the same molecule, the TGI (UO-31 renal) was 29800 nM, the GI50 (SK-MEL-28 melanoma) was 992 nM and the TGI (SK-MEL-28 melanoma) was 4260 nM. The GI50 (SW-620 colon) was 1150 nM, the TGI (SW-620 colon) was greater than 38300 nM and the GI50 (T-47D breast) was 1200 nM. It also gave a TGI (T-47D breast) of 18500 nM, a GI50 (HOP-92 NSCLC) of 1150 nM and a TGI (HOP-92 NSCLC) of 11700 nM. It also gave a GI50 (TK-10 renal) of 3030 nM, a TGI (TK-10 renal) of 35700 nM and a GI50 (HCT-15 colon) of 4650 nM. The TGI (HCT-15 colon) was 21700 nM, the GI50 (SF-295 CNS) was 1340 nM and the TGI (SF-295 CNS) was 11800 nM. It also gave a GI50 (HT29 colon) of 953 nM, a TGI (HT29 colon) of 6450 nM and a GI50 (M14 melanoma) of 744 nM. The TGI (M14 melanoma) was 1880 nM, the GI50 (NCI-H522 lung) was 858 nM and the TGI (NCI-H522 lung) was 2320 nM. The GI50 (NCI-H23 lung) was 996 nM, the TGI (NCI-H23 lung) was 3310 nM and the GI50 (NCI-H460 lung) was 210 nM. The TGI (NCI-H460 lung) was 2620 nM, the GI50 (HCC-2998 colon) was 545 nM and the TGI (HCC-2998 colon) was 1590 nM. The GI50 (SK-OV-3 ovarian) was 1350 nM, the TGI (SK-OV-3 ovarian) was 26400 nM and the GI50 (MDA-MB-468 breast) was 613 nM. The TGI (MDA-MB-468 breast) was 2080 nM, the GI50 (CAKI-1 renal) was 3000 nM and the TGI (CAKI-1 renal) was 29700 nM. It also gave a GI50 (BT-549 breast) of 823 nM, a TGI (BT-549 breast) of 2380 nM and a GI50 (COLO 205 colon) of 1700 nM. For the same molecule, the TGI (COLO 205 colon) was 6870 nM, the GI50 (UACC-257 melanoma) was 1220 nM and the TGI (UACC-257 melanoma) was 8480 nM. For the same molecule, the GI50 (IGROV1 ovarian) was 1320 nM, the TGI (IGROV1 ovarian) was 11400 nM and the GI50 (PC-3 prostate) was 1140 nM. It also gave a TGI (PC-3 prostate) of 9360 nM, a GI50 (SF-268 CNS) of 2900 nM and a TGI (SF-268 CNS) of 19500 nM. The GI50 (SN12C renal) was 1610 nM, the TGI (SN12C renal) was 19600 nM and the GI50 (MDA-MB-435) was 1250 nM. The TGI (MDA-MB-435) was 6780 nM, the GI50 (K-562 leukemia) was 972 nM and the TGI (K-562 leukemia) was greater than 38300 nM. The GI50 (MCF7 breast) was 524 nM, the TGI (MCF7 breast) was 2110 nM and the GI50 (MDA-MB-231 breast) was 2240 nM. It also gave a TGI (MDA-MB-231 breast) of 12800 nM, a GI50 (A549 NSCLC) of 999 nM and a TGI (A549 NSCLC) of 8720 nM. It also gave a GI50 (U251 CNS) of 1000 nM, a TGI (U251 CNS) of 4810 nM and a GI50 (RXF 393 renal) of 447 nM. The TGI (RXF 393 renal) was 1470 nM.
